Where a name gives a salt, the structure may show the parent alone.
Assays:
[1] = biological target: T1, E. coli thioredoxin reductase-thioredoxin system (Escherichia coli, UniProt P0A9P4); assay: Superoxide detection by cytochrome c reduction assay with thioredoxin system; format: biochemical
T1 construct: purchased American Diagnostica Inc (thioredoxin reductase); Promega Inc (thioredoxin)
Description: Superoxide detection by cytochrome c reduction assay. Superoxide (O2—) generated in the process of redox-cycling was detected by SOD inhibitable rate of ferricytochrome c reduction (Das et al., 2000). The reaction mixture contained 0.05 M potassium phosphate buffer (pH 7.78), 1 mM EDTA, 10 μM cytochrome c and 200 μM NADPH. […] The rate of […] of cytochrome c was measured at 550 nm for 0-15 minutes using Shimadzu UV-1601PC in kinetic mode. Reaction blank contained potassium phosphate buffer, cytochrome c and NADPH with or without SOD, and controls included 0.35-0.7 μg TR and /or Trx in buffer. All reactions were performed in triplicate.

[2] = test system: Trx9 cells (MCF-7 clones expressing thioredoxin); assay: TUNEL assay; format: cell-based, human; details: Trx9 compared to vector cells; daunomycin 1 μM, 16 h
Description: TUNEL assay. Apoptotic cells were detected using In Situ Cell Death detection, POD kit (Roche Molecular Biochemicals, Indianapolis, Ind.). Apoptotic DNA strand breaks were identified by labeling 3′-OH termini with fluorescein-dUTP using Terminal deoxy Transferase as per manufacturer's protocol. For this assay cells were allowed to adhere overnight in chambered glass slides (Nunc) to a final density of 25,000 cells per well. Followed by treatment with the appropriate concentration of drugs the media was removed and washed twice with PBS containing 1% BSA and the cells fixed in 4% paraformaldehyde for 30 min and washed with PBS containing 1% BSA. The cells were then permeabilized with 0.1% Triton X-100 in 0.1% sodium citrate for 2 min on ice and washed twice with PBS containing 1% BSA. The labeling reaction was performed using FITC labeled dUTP along with other nucleotides by terminal deoxynucleotidyl transferase for 60 mins in dark at 37° C. in humidified chamber. The cells were washed with PBS-1% BSA, mounted onto a slide, and the incorporated fluorescein-dUTP was analyzed using Nikon laser confocal microscope.

[3] = test system: Trx9 cells (MCF-7 clones expressing thioredoxin); assay: Colony formation assay (clonogenic survival); format: cell-based, human; details: 0.1 μM daunomycin, end of 14 days
Description: (§1) Colony formation assay. For determination of clonogenic survival, the cells were seeded to a final density of 1×10^6 in 100 mm dishes, allowed to attach overnight, and the following day treated with the appropriate concentration of the drug for 48 hr. The cells were trypsinized, counted and seeded to final density of 25,000 viable cells in 100 mm dishes and allowed to grow for 14 days followed by washing and staining with crystal violet.

[4] = test system: vector cells (vector-only MCF-7); assay: Colony formation assay (clonogenic survival); format: cell-based, human; details: 0.1 μM daunomycin, end of 14 days
Description: as §1

[5] = cited from earlier work
[6] = test system: Trx9 cells (MCF-7 clones expressing thioredoxin); assay: Flow cytometry, apoptosis as sub-G1 peak (propidium iodide); format: cell-based, human; details: daunomycin 1 μM, 16 h
Description: (§2) Flow cytometry. […] The cells were washed again with PBS containing 1% FBS and resuspended in 500 μl of PBS followed by fixing in 7.5 ml of ice-cold ethanol 70% added dropwise while vortexing and stored in −20° C. overnight. After two washes with PBS containing 1% FBS and resuspended in same buffer and stained with Propidium Iodide 10 μg/ml (Sigma, St. Louis, Mo.) in the presence of RNase 250 μg/ml at 37° C. for 30 min in dark. Stained cells were analyzed using Epics Elite ESP Coulter, using argon laser at 488 nm wavelength. Flow cytometric results were analyzed and apoptosis was defined as ‘sub G1’ peak (Gutierrez, 2000) using Multicycle software.

[7] = test system: vector cells (vector-only MCF-7); assay: as above; format: cell-based, human; details: daunomycin 1 μM, 16 h
Description: as §2

A549 cells = assay: ROS detection by DCF-DA fluorescence; format: cell-based, human; details: daunomycin only (1 μM)
Description: In situ detection of superoxide by fluorescent probe DiCarboxyFluorescein-DiAcetate (DCF-DA). […] Cells were pre-incubated with 20 μM DCF-DA (Sigma, St. Louis, Mo.) in 20 mM Hepes in Phosphate Buffered Saline (PBS) containing bovine serum albumin (BSA, 5 mg/ml) at 37° C. for 30 min followed by washing with PBS buffer, and the drug was added and observed for 10-15 min in a Nikon laser confocal microscope using laser beam wavelength 488 nm analyzed by Ultraview software (Perkin-Elmer).

[8] = test system: Trx9 cells (MCF-7 clones expressing thioredoxin); assay: XTT cytotoxicity assay; format: cell-based, human; details: percent control of untreated cells
Description: (§3) XTT assay. Cytotoxicity was estimated using XTT based in vitro toxicology assay kit, (Sigma Chemical Co.). This assay is based on the metabolic capacity of viable cells; the mitochondrial dehydrogenases convert XTT yielding orange formazan crystal soluble in aqueous media that is estimated spectrophotmetrically at 450 nm and a reference wavelength at 690. The assay was performed 48 hr post treatment; cells were washed and XTT added in media free of serum and phenol red, incubated for 2-4 hr and analyzed in Spectramax 190 plate reader.

[9] = test system: vector cells (vector-only MCF-7); assay: XTT cytotoxicity assay; format: cell-based, human; details: percent control of untreated cells
Description: as §3

[10] = test system: Trx9 cells (MCF-7 clones expressing thioredoxin); assay: Superoxide production in cell lysate by SOD-inhibitable reduction of ferricytochrome c; format: biochemical, human; details: Trx9 compared to vector-transfected cells; 10 μM drug
Description: Determination of superoxide production by reduction of ferricytochrome c. Superoxide production was measured as superoxide dismutase (SOD) inhibitable reduction of ferricytochrome c (Azzi et al. 1975). Cells were sonicated in potassium phosphate buffer (0.05M, pH 7.8 plus 1 mM EDTA), centrifuged and the supernatant was used for the assay. To determine the superoxide generation in the cell lysate, the supernatant was incubated with 10 μM drug and 10 μM cytochrome c, with or without 1U SOD to determine SOD inhibitable rate. The specificity of thioredoxin mediated superoxide generation in the supernatant was detected by pre-incubation of cell lysates with anti-human thioredoxin antibody (American Diagnostica, Greenwich, Conn.) for 15 min. All reactions were performed in triplicate. The reduction of ferricytochrome c was measured both in kinetic and end point mode with path check on for 1 hr duration at a wavelength of 550 nm using a Spectramax 190 plate reader (Molecular Devices). Total protein was quantified using Bradford protein assay (Biorad) and the superoxide generation was determined per milligram of protein in the extracts.

[11] = test system: Trx9 cells (MCF-7 clones expressing thioredoxin); assay: Cytochrome c release (cytosolic extract, western blotting); format: cell-based, human; details: Trx9 compared to vector-only cells; daunomycin 1 μM, 16 h
Description: Preparation of cytosolic extract by sub cellular fractionation. Cytosolic preparation was done as described earlier (Yang et al., 1997). Briefly, cells were harvested by centrifugation (600×g) and washed once with ice cold PBS for 10 min at 4° C. The cell pellets were resuspended in five volumes of fractionation buffer (250 mM sucrose containing 20 mM HEPES-KOH, 10 mM KCl, 1.5 mM each of sodium-EDTA and sodium- EGTA, 1 mM MgCl2, 1 mM dithiothreitol, 0.1 mM PMSF and cocktail of protease inhibitors) and incubated on ice for 30 min. Cells were then homogenized using a dounce homogenizer with type B pestle and centrifuged twice at 800×g for 10 min at 4° C. The supernatant was centrifuged at 10,000×g for 15 min at 4° C., and the resulting supernatant was then transferred to fresh tube and centrifuged at 100,000×g […] for 1 hr at 4° C. The final supernatant obtained in this centrifugation was designated as cytosolic extract and was stored in −70° C. for further analysis.
Western blotting. Equal amounts of protein were resolved on 10% SDS-polyacrylamide gel electrophoresis, and transferred to nitrocellulose membrane (Hybond-ECL, Amersham Pharmacia Biotech) immunoblotted with anti-p53 or anti-p53 phospho ser-15 (Cell Signaling Technology, Beverly, Mass.) and visualized using Lumiglo system with antirabbit conjugated HRP. […]

[12] = test system: Trx9 cells (MCF-7 clones expressing thioredoxin); assay: Cell proliferation assay by BrdU ELISA; format: cell-based, human; details: daunomycin 1 μM, 16 h
Description: (§4) Cell proliferation assay. Cell proliferation assay by BrdU ELISA kit was purchased from Roche Molecular Biochemicals (Indianapolis, Ind.). For this assay cells were seeded to a final density of 5000 per well in 96 well plates and allowed to attach overnight, […] BrdU for 4-6 hr, and detected using Tetramethylbenzedine as substrate with Anti-BrdU POD at 370 nm and reference wavelength 492 nm in Spectramax 190 plate reader.

[13] = test system: vector cells (vector-only MCF-7); assay: Cell proliferation assay by BrdU ELISA; format: cell-based, human; details: daunomycin 1 μM, 16 h
Description: as §4

T1 sequence (P0A9P4 2-321): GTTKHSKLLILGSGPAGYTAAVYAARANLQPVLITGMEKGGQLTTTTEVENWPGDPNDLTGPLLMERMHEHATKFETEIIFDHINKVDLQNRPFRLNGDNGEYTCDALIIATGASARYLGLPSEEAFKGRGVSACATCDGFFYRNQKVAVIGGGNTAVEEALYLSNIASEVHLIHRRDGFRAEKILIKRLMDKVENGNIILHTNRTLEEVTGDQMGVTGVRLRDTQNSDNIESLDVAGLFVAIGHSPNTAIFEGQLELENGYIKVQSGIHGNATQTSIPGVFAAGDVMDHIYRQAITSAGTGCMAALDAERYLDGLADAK

COc1cccc2c1C(=O)c1c(O)c3c(c(O)c1C2=O)C[C@@](O)(C(C)=O)C[C@@H]3O[C@H]1C[C@H](N)[C@H](O)[C@H](C)O1 [daunomycin, 5,12-Naphthacenedione, (8S-cis)-8-acetyl-10-[(3-amino-2,3,6-trideoxy-a-L-lyxo-hexanopyranosyl)oxy]-7,8,9,10-tetrahydro-6,8,11-trihydroxy-10-methoxy-, hydrochloride]
levels of O2— generated ([1]; drug 10 μM with thioredoxin reductase alone): significantly higher levels of O2—
SOD inhibitable rate of ferricytochrome c reduction ([1]; drug alone, 10 μM): did not show significant level
TUNEL-positive cells [2]: higher number of TUNEL positive Trx9 cells
clonogenic survival [3]: failed to propagate into colonies
clonogenic survival [4]: able to propagate into several colonies
secreted into the bile ([5]; in vivo): ~40%
elimination half-life ([5]; intravenous): about 19 hr
absorption ([5]; oral): poor
percentage of apoptotic cells (sub-G1) [6]: 23%
percentage of apoptotic cells (sub-G1) [7]: 6%
ROS generation (DCF-DA) (A549 cells): ROS generation was increased
percentage of cell death (XTT) [8]: 48%
percentage of cell death (XTT) [9]: 16%
O2— production [10]: significantly higher level of O2—
cytochrome c release [11]: increased cytochrome c release
level of BrdU incorporated [12]: 60%
level of BrdU incorporated [13]: 76%

Source: patent publication US20050208037A1, “Thioredoxin increases redox-cycling of anticancer agents thereby sensitizes cancer cells to apoptosis” (Board of Regents, The University of Texas System, priority 2003, published 2005)
